Counter-ions that a name gives are not always drawn.
Columns and labels:
[1] = target: T1, human-CD73 (Trp27-Lys547, His-tag) (Homo sapiens, UniProt P21589); test: CD73 biochemical assay (colorimetric, Malachite Green phosphate detection); conditions: 2 nM CD73, 50 μM AMP; for inhibition at 20 µM: read-out: % inhibition at 20 μM (Percent inhibition data in CD73); for IC50: four-parameter curve fit, read-out: Potency (IC50 values) of selected compounds in CD73, group
T1 construct: human-CD73 (Trp27-Lys547, His-tag); His-tag
T1 sequence (P21589 27-547): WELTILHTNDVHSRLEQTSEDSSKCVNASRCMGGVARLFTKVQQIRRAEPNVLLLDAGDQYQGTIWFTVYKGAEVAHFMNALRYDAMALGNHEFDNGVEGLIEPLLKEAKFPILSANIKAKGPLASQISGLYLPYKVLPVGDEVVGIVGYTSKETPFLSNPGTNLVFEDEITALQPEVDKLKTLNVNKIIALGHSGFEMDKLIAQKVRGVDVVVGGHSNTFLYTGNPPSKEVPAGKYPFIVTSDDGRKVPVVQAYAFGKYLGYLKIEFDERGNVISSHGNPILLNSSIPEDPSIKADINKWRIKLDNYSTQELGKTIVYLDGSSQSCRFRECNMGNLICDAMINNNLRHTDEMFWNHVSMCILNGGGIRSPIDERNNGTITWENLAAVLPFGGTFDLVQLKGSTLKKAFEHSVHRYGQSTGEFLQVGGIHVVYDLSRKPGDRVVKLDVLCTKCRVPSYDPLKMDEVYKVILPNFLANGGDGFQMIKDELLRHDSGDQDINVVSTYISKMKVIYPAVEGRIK
Description: A colorimetric-based method was used for assaying compounds of the invention for CD73 enzyme inhibitory activity. Human CD73 catalyzes the conversion of AMP to adenosine with the release of orthophosphate. A Malachite Green Phosphate Detection kit is used to measure the formation of orthophosphate product. […] A compound of the present invention and enzyme are incubated for 30 minutes at room temperature. Next, 20 μL of AMP in assay buffer is added to the plate. The final concentration of CD73 and AMP are 2 nM and 50 μM respectively. Following 30 minutes reaction at room temperature, 20 μL of Malachite reagent is added to all the reaction wells. The formation of green complex formed between Malachite Green, molybdate and free orthophosphate is measured on a plate reader (620 nm).

[2] = target: T2, A2aR (Homo sapiens, UniProt P29274); test: A2aR biochemical assay (TR-FRET binding, Tag-lite A2aR labelled cells, fluorescent antagonist); conditions: 10 nM fluorescent A2aR antagonist; for inhibition at 20 µM: read-out: % inhibition at 20 μM (Percent inhibition data in A2aR); for IC50: four-parameter curve fit, read-out: Potency (IC50 values) of selected compounds in A2aR, group
T2 construct: expressed in transfected cells
Description: The compounds of present invention were assayed for A2aR enzyme binding activity in a TR-FRET based method. Typically, 10 μL of A2aR labelled cells in assay buffer (Tag-lite, 1×) is added to a 384-well plate containing 5 μL of a compound of present invention in final 1% DMSO, serially diluted in 1:5 in a 5-6 point titration. The aforesaid compound and cells are incubated for 30 minutes at room temperature. Next, 5 μL of A2aR antagonist (fluorescent ligand) in assay buffer is added to the plate. The final concentration of A2aR antagonist is 10 nM. Following 30 minutes reaction at room temperature, the plate was read on a plate reader (Ex: 340 nm Em: 615 nm and 665 nm) to measure the binding of test compound to A2aR cells. The results are interpreted as percentage inhibition as presented in Table-2A of binding by the test compound with respect to the DMSO control.

[3] = 20 μM compound, vs DMSO control

T2 sequence (P29274 whole entry): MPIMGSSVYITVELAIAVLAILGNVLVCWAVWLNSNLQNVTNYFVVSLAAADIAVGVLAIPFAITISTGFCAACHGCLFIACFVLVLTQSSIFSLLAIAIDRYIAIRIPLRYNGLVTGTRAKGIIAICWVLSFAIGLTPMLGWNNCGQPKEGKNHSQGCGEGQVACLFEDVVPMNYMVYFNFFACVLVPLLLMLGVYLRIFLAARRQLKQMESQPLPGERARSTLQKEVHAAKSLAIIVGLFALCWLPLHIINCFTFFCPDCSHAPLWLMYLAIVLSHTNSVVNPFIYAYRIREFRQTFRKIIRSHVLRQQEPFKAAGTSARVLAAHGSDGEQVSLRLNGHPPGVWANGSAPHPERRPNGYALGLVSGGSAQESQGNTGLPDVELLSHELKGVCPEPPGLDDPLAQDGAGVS

Row | SMILES | inhibition at 20 µM ([1]; 20 μM compound) | inhibition at 20 µM [2, 3] | IC50 [1] | IC50 [2] | % inhibition at 20 μM (Percent inhibition data in A2aR) [2, 3] | % inhibition at 20 μM (Percent inhibition data in CD73) ([1]; 20 μM compound, sodium salt)
1 | CC(=O)Nc1nc(NCCc2ccc(NS(=O)(=O)c3cc(Cl)c(O)c(C(N)=O)c3)cc2)nc2nc(-c3ccco3)nn12 [Example A8, 5-(N-(4-(2-((7-acetamido-2-(furan-2-yl)-[1,2,4]triazolo[1,5-a][1,3,5]triazin-5-yl)amino)ethyl)phenyl)sulfamoyl)-3-chloro-2-hydroxybenzamide] | 70% | 81% |  |  |  | 
2 | NC(=O)c1cc(S(=O)(=O)Nc2cccc(CNc3nc(N)n4nc(-c5ccco5)nc4n3)c2)cc(Cl)c1O [Example A1, 5-(N-(3-(((7-amino-2-(furan-2-yl)-[1,2,4]triazolo[1,5-a][1,3,5]triazin-5-yl)amino)methyl)phenyl)sulfamoyl)-3-chloro-2-hydroxybenzamide] | 91% | 78% | > 1 µM | < 0.025 µM |  | 
3 | NC(=O)c1cc(S(=O)(=O)Nc2ccc(CNc3nc(N)n4nc(-c5ccco5)nc4n3)cc2)cc(Cl)c1O [Example A2, 5-(N-(4-(((7-amino-2-(furan-2-yl)-[1,2,4]triazolo[1,5-a][1,3,5]triazin-5-yl)amino)methyl)phenyl)sulfamoyl)-3-chloro-2-hydroxybenzamide] | 97% | 80% | 0.11 to 1 µM | > 0.05 µM |  | 
4 | NC(=O)c1cc(S(=O)(=O)Nc2ccc(CCCNc3cc(N)n4nc(-c5ccco5)cc4n3)cc2)cc(Cl)c1O [Example A24] | 92% | 79% | < 0.1 µM | > 0.05 µM |  | 
5 | Nc1nc(NCCc2ccc(NS(=O)(=O)c3ccc(O)c(C(F)(F)F)c3)cc2)nc2nc(-c3ccco3)nn12 [Example A10, N-(4-(2-((7-amino-2-(furan-2-yl)-[1,2,4]triazolo[1,5-a][1,3,5]triazin-5-yl)amino)ethyl)phenyl)-4-hydroxy-3-(trifluoromethyl)benzenesulfonamide] | 17% | 88% |  |  |  | 
6 | NC(=O)c1cc(S(=O)(=O)Nc2ccc3ccn(CCNc4nc(N)n5nc(-c6ccco6)nc5n4)c3c2)cc(Cl)c1O [Example D1, 5-(N-(1-(2-((7-amino-2-(furan-2-yl)-[1,2,4]triazolo[1,5-a][1,3,5]triazin-5-yl)amino)ethyl)-1H-indol-6-yl)sulfamoyl)-3-chloro-2-hydroxybenzamide] | 49% | 85% | 0.11 to 1 µM |  |  | 
7 | NC(=O)c1cc(S(=O)(=O)Nc2ccc(CCCCNc3nc(N)n4nc(-c5ccco5)nc4n3)cc2)cc(Cl)c1O [Example A18, 5-(N-(4-(4-((7-amino-2-(furan-2-yl)-[1,2,4]triazolo[1,5-a][1,3,5]triazin-5-yl)amino)butyl)phenyl)sulfamoyl)-3-chloro-2-hydroxybenzamide] | 87% | 82% | > 1 µM |  |  | 
8 | COC(=O)[C@@H](NC(=O)Oc1c(Cl)cc(S(=O)(=O)Nc2ccc(CCCNc3nc(N)n4nc(-c5ccco5)nc4n3)cc2)cc1C(N)=O)C(C)C [Example A25, Methyl ((4-(N-(4-(3-((7-amino-2-(furan-2-yl)-[1,2,4]triazolo[1,5-a][1,3,5]triazin-5-yl)amino)propyl)phenyl)sulfamoyl)-2-carbamoyl-6-chlorophenoxy)carbonyl)valinate] | 99% | 81% | < 0.1 µM |  |  | 
9 | NC(=O)c1cc(S(=O)(=O)Nc2ccc(CCCNc3nc(N)n4nc(-c5ccco5)nc4n3)cc2)cc(Cl)c1O [Example A11, 5-(N-(4-(3-((7-amino-2-(furan-2-yl)-[1,2,4]triazolo[1,5-a][1,3,5]triazin-5-yl)amino)propyl)phenyl)sulfamoyl)-3-chloro-2-hydroxybenzamide] | 98% |  | < 0.1 µM | < 0.025 µM | 88% | 
10 | NC(=O)c1cc(S(=O)(=O)Nc2ccc(CCNc3nc(N)n4nc(-c5ccco5)nc4n3)cc2)cc(Cl)c1O [Example A3, 5-(N-(4-(2-((7-amino-2-(furan-2-yl)-[1,2,4]triazolo[1,5-a][1,3,5]triazin-5-yl)amino)ethyl)phenyl)sulfamoyl)-3-chloro-2-hydroxybenzamide] | 96% | 83% | 0.11 to 1 µM | < 0.025 µM |  | 
11 | NC(=O)c1cc(S(=O)(=O)Nc2ccc(CCCNc3nc(N)n4nc(-c5ccco5)nc4n3)cc2)cc(Cl)c1O [Example A26, 5-(N-(4-(3-((7-amino-2-(furan-2-yl)-[1,2,4]triazolo[1,5-a][1,3,5]triazin-5-yl)amino)propyl)phenyl)sulfamoyl)-3-chloro-2-hydroxybenzamide sodium salt] |  | 80% |  |  |  | 96%
12 | Nc1nc(NCCc2ccc(NS(=O)(=O)c3cc(Cl)c4[nH]ccc(=O)c4c3)cc2)nc2nc(-c3ccco3)nn12 [Example B3, N-(4-(2-((7-amino-2-(furan-2-yl)-[1,2,4]triazolo[1,5-a][1,3,5]triazin-5-yl)amino)ethyl)phenyl)-8-chloro-4-oxo-1,4-dihydroquinoline-6-sulfonamide] | 9% | 88% |  |  |  | 
13 | NC(=O)c1cc(S(=O)(=O)Nc2ccc(CCNc3nc(N)n4nc(-c5ccco5)nc4n3)c(O)c2)cc(Cl)c1O [Example A5, 5-(N-(4-(2-((7-amino-2-(furan-2-yl)-[1,2,4]triazolo[1,5-a][1,3,5]triazin-5-yl)amino)ethyl)-3-hydroxyphenyl)sulfamoyl)-3-chloro-2-hydroxybenzamide] | 99% | 84% | 0.11 to 1 µM | < 0.025 µM |  | 
14 | NC(=O)c1cc(S(=O)(=O)Nc2ccc(CCCNc3cc(N)n4nc(-c5ccco5)nc4n3)cc2)cc(Cl)c1O [Example A20, 5-(N-(4-(3-((7-amino-2-(furan-2-yl)-[1,2,4]triazolo[1,5-a]pyrimidin-5-yl)amino)propyl)phenyl)sulfamoyl)-3-chloro-2-hydroxybenzamide] | 92% | 80% | < 0.1 µM | 0.0251 to 0.05 µM |  | 
15 | NC(=O)c1cc(S(=O)(=O)Nc2ccc(CCCNc3nc(N)n4nc(-c5ccco5)nc4n3)cc2F)cc(Cl)c1O [Example A15, 5-(N-(4-(3-((7-amino-2-(furan-2-yl)-[1,2,4]triazolo[1,5-a][1,3,5]triazin-5-yl)amino)propyl)-2-fluorophenyl)sulfamoyl)-3-chloro-2-hydroxybenzamide] | 96% | 83% | 0.11 to 1 µM |  |  | 
16 | NC(=O)c1cc(S(=O)(=O)Nc2cccc(NCCNc3nc(N)n4nc(-c5ccco5)nc4n3)c2)cc(Cl)c1O [Example C2, 5-(N-(3-((2-((7-amino-2-(furan-2-yl)-[1,2,4]triazolo[1,5-a][1,3,5]triazin-5-yl)amino)ethyl)amino)phenyl)sulfamoyl)-3-chloro-2-hydroxybenzamide] |  | 85% |  |  |  | 
17 | NC(=O)c1cc(S(=O)(=O)Nc2ccc(CCCNc3cc(N)n4nc(-c5ccco5)nc4n3)cc2F)cc(Cl)c1O [Example A23, 5-(N-(4-(3-((7-amino-2-(furan-2-yl)-[1,2,4]triazolo[1,5-a]pyrimidin-5-yl)amino)propyl)-2-fluorophenyl)sulfamoyl)-3-chloro-2-hydroxybenzamide] |  | 78% |  | > 0.05 µM |  | 
